Results on 27 molecules are retold here after patent US20160185797A1, “ALKYNYL ALCOHOLS AND METHODS OF USE” (Genentech, Inc., priority 2013, published 2016).

Assay [1] has as its system REL-A (p65) nuclear translocation in HeLa cells. Kind of assay: REL-A (p65) nuclear translocation assay in HeLa cells, TNF-α stimulated (classical NF-kB signaling), high content imaging. The format is cell-based. As to conditions: Homo sapiens, HeLa, compound 4.5 h, then 10 ng/mL TNF-α for 30 minutes, read-out: REL-A HeLa Transloc Assay (IC50). On the procedure: (§1) Several assays were developed to profile the cellular activities of NIK inhibitors.
(§2) (2) A second set of cell assay are used to define the selectivity of NIK inhibitors toward inhibition of classical vs. non-classical NF-kB signaling and rely on quantification of the nuclear translocation of p52 (NF-kB2) and REL-A (p65) using high content cellular imaging. For the p52 (non-classical NF-kB signaling) nuclear translocation assay, HeLa cells are treated with different concentrations of compounds (0.2% DMSO final) in medium containing 10% fetal bovine serum and then stimulated with 100 ng/mL of an anti-lymphotoxin beta receptor antibody (R&D Systems) for 5 hours. In the REL-A nuclear translocation assay, HeLa cells are incubated with compounds (0.2% DMSO final) for 4.5 hours in medium containing 10% fetal bovine serum before stimulating them with 10 ng/mL tumor necrosis factor (TNF)-α (R&D Systems) for 30 minutes. Cells are fixed with 4% paraformaldehyde, permeabilized by adding 0.1% Triton X-100 in phosphate buffered saline, and then are incubated with either 2 ug/mL anti-p52 antibody (Millipore) or 400 ng/mL anti-REL-A (p65) antibody (Santa Cruz Biotechnology). Finally, the cells are incubated with an Alexa488-labeled secondary antibody (Invitrogen) and DRAQ5 DNA stain (Biostatus). Imaging is carried out using an Opera reader (Perkin Elmer) and data are analyzed with the aid of Acapella software (Perkin Elmer). The p52 or REL-Atranslocation into the nucleus is quantified by the ratio of the nuclear to cytoplasmic signal intensity. […] The compounds in listed in Table 1 have the corresponding inhibitory value (IC50 in micromolar) for NIK p52 Translocation Assay as set forth in Table 2.
(§3) The compounds in listed in Table 1 have the corresponding inhibitory values (IC50 in micromolar) for the Translocation Assays as set forth in Table 2.

In assay [2] the test system is p52 (NF-kB2) nuclear translocation in HeLa cells. Kind of assay: p52 (NF-kB2) nuclear translocation assay in HeLa cells, anti-lymphotoxin beta receptor antibody stimulated (non-classical NF-kB signaling), high content imaging. The class given is cell-based. The following applies: Homo sapiens, 100 ng/mL anti-lymphotoxin beta receptor antibody for 5 hours, read-out: p52 HeLa Transloc Assay (IC50). On the procedure: as §1, §2, §3

In assay [3] the target is T1, nuclear factor-kappa B (NF-kB)-inducing kinase (NIK) (Homo sapiens, UniProt Q99558).
T1 construct: made in house; host or cells: baculovirus-infected insect cells
Kind of assay: NIK enzyme inhibition assay (Transcreener ADP fluorescence polarization, NIK ADP-FP). The format is biochemical.

pIC50: −log10 of the molar value. Some results are limits rather than exact numbers.

T1 sequence (Q99558 whole entry): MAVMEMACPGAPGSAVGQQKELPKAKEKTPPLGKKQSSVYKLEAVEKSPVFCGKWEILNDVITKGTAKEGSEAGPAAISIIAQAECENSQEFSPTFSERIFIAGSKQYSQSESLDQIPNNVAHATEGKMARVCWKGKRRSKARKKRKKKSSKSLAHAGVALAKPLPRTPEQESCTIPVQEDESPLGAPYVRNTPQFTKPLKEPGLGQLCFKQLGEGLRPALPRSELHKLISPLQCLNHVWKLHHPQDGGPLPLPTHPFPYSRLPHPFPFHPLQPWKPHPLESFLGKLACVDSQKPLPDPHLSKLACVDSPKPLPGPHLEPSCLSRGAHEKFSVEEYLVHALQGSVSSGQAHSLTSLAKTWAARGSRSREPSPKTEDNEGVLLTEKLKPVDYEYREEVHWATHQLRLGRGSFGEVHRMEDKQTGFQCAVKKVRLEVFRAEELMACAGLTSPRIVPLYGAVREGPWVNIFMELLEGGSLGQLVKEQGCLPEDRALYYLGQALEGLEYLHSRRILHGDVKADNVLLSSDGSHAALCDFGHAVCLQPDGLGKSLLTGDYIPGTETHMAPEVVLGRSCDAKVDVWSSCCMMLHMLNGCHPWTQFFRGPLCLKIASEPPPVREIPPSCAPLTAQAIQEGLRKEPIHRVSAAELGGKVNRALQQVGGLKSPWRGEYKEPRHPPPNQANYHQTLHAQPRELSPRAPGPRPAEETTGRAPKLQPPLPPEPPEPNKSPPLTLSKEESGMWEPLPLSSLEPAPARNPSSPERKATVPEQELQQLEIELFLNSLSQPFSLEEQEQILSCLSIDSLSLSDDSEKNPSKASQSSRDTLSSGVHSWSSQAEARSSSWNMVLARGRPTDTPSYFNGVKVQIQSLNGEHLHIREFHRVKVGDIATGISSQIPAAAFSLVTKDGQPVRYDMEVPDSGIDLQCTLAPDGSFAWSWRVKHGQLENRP

For the molecule `CN1CCC(O)(C#Cc2cccc(-c3nc(C(N)=O)cn4ccnc34)c2)C1=O` (stereo in doubt) [Example 45, 8-(3-[2-[(3S)-3-hydroxy-1-methyl-2-oxopyrrolidin-3-yl]ethynyl]phenyl)imidazo [1,2-a]pyrazine-6-carboxamide], the pIC50 was less than 4.70 in assay [1] and 6.91 in assay [2]. In assay [3], this molecule came in with an inhibition constant (Ki) of 0.39 nM.

In the case of `CN1CC[C@@](O)(C#Cc2cccc(-c3cccc(C(N)=O)n3)c2)C1=O` [Example 1, 6-[3-[2-[(3R)-3-hydroxy-1-methyl-2-oxo-pyrrolidin-3-yl]ethynyl]phenyl]pyridine-2-carboxamide], the figures for the negative logarithm of the IC50 (pIC50) in assay [1] and in assay [2] were less than 4.70 and 7.03, respectively.

Turning to `CN1CC[C@@](O)(C#Cc2cccc(-c3ccnc(C(N)=O)n3)c2)C1=O` [Example 3, 4-[3-[2-[(3R)-3-hydroxy-1-methyl-2-oxo-pyrrolidin-3-yl]ethynyl]phenyl]pyrimidine-2-carboxamide], the pIC50 in assay [1] was less than 4.70; in assay [2] it was 6.17.

With `COc1cc(C(N)=O)nc(-c2cccc(C#C[C@]3(O)CCN(C)C3=O)c2)n1` [Example 29, 2-[3-[2-[(3R)-3-hydroxy-1-methyl-2-oxo-pyrrolidin-3-yl]ethynyl]phenyl]-6-methoxy-pyrimidine-4-carboxamide], the negative-log IC50 (pIC50) in assay [1] is less than 4.70; in assay [2], 7.33.

Take `CN1CC[C@@](O)(C#Cc2cccc(-c3cc4ccccc4c(C(N)=O)n3)c2)C1=O` [Example 40, 3-[3-[2-[(3R)-3-hydroxy-1-methyl-2-oxo-pyrrolidin-3-yl]ethynyl]phenyl] isoquinoline-1-carboxamide]: the pIC50 is less than 5.10 in assay [1] and 8.11 in assay [2].

Turning to `CN1CC[C@@](O)(C#Cc2cccc(-c3ccc(N)c(C(N)=O)n3)c2)C1=O` [Example 63, 3-amino-6-[3-[2-[(3R)-3-hydroxy-1-methyl-2-oxo-pyrrolidin-3-yl]ethynyl]phenyl]pyridine-2-carboxamide], the pIC50 in assay [1] is not above 4.70; in assay [2] it was 7.97.

Consider `COc1cc(C(N)=O)nc(-c2cccc(C#C[C@]3(O)CCN(C)C3=O)c2)c1` [Example 90, 6-[3-[2-[(3R)-3-hydroxy-1-methyl-2-oxo-pyrrolidin-3-yl]ethynyl]phenyl]-4-methoxy-pyridine-2-carboxamide], for which the pIC50 is not above 4.70 in assay [1] and 7.77 in assay [2].

In the case of `CN1CC[C@@](O)(C#Cc2cccc(-c3cncc(C(N)=O)n3)c2)C1=O` [Example 154, 6-[3-[2-[(3R)-3-hydroxy-1-methyl-2-oxo-pyrrolidin-3-yl]ethynyl]phenyl]pyrazine-2-carboxamide], the pIC50 in assay [1] is less than 5.70; in assay [2], 6.40.

In assay [3], `CN1CC[C@@](O)(C#Cc2cccc(-c3cc(-n4ccnc4)cc(C(N)=O)n3)c2)C1=O` [Example 182, 6-[3-[2-[(3R)-3-hydroxy-l-methyl-2-oxo-pyrrolidin-3-yl]ethynyl]phenyl]-4-imidazol-1-yl-pyridine-2-carboxamide] had an inhibitory constant (Ki) of 0.17 nM.

In the case of `COCc1cc(-c2cccc(C#C[C@]3(O)CCN(C)C3=O)c2)nc(C(N)=O)n1` [Example 183, 4-[3-[2-[(3R)-3-hydroxy-l-methyl-2-oxo-pyrrolidin-3-yl]ethynyl]phenyl]-6-(methoxymethyl)pyrimidine-2-carboxamide], in assay [3], the inhibitory constant (Ki) is 0.49 nM.

Regarding `CN1CC[C@@](O)(C#Cc2cc3c(c(-c4nccc(C(N)=O)n4)c2)CCN3)C1=O` [Example 184, 2-[6-[2-[(3R)-3-hydroxy-1-methyl-2-oxo-pyrrolidin-3-yl]ethynyl]indolin-4-yl] pyrimidine-4-carboxamide], affinity in assay [3] was put at a Ki of 0.14 nM.

Take `COc1cc(C(N)=O)nc(-c2cccc(C#C[C@]3(O)CCN(C)C3=O)c2)c1F` [Example 185, 5-fluoro-6-[3-[2-[(3R)-3-hydroxy-1-methyl-2-oxo-pyrrolidin-3-yl]ethynyl]phenyl]-4-methoxy-pyridine-2-carboxamide]: in assay [3], the Ki came out at 0.5 nM.

Regarding `CN1CC[C@@](O)(C#Cc2cccc(-c3nc(C(N)=O)cc4c3OCC4)c2)C1=O` [Example 186, 7-[3-[2-[(3R)-3-hydroxy-1-methyl-2-oxo-pyrrolidin-3-yl]ethynyl]phenyl]-2,3-dihydrofuro[1,3-c]pyridine-5-carboxamide], the inhibitory constant (Ki) in assay [3] amounted to 0.14 nM.

`CN1CC[C@@](O)(C#Cc2cccc(-c3ccc(C(F)F)c(C(N)=O)n3)c2)C1=O` [Example 187, 3-(difluoromethyl)-6-[3-[2-[(3R)-3-hydroxy-1-methyl-2-oxo-pyrrolidin-3-yl]ethynyl]phenyl]pyridine-2-carboxamide] showed a Ki in assay [3] of 0.06 nM.

Molecule `CN1CC[C@@](O)(C#Cc2cccc(-c3nc(C(N)=O)ccc3C(F)F)c2)C1=O` [Example 188, 5-(difluoromethyl)-6-[3[2-[(3R)-3-hydroxy-1-methyl-2-oxo-pyrrolidin-3-yl]ethynyl]phenyl]pyridine-2-carboxamide] came in with an inhibition constant Ki in assay [3] of 9.53 nM.

The molecule `CN1CC[C@@](O)(C#Cc2cccc(-c3cc(OCC(F)(F)F)cc(C(N)=O)n3)c2)C1=O` [Example 189, 6-[3-[2-[(3R)-3-hydroxy-1-methyl-2-oxo-pyrrolidin-3-yl]ethynyl]phenyl]-4(2,2,2-trifluoroethoxy)pyridine-2-carboxamide] returned a Ki in assay [3] of 0.15 nM.

Molecule `CN1CC[C@@](O)(C#Cc2cccc(-c3cc(-n4cc(F)cn4)cc(C(N)=O)n3)c2)C1=O` [Example 190, 4-(4-fluoropyrazol-1-yl)-6-[3-[2-[(3R)-3-hydroxy-1-methyl-2-oxo-pyrrolidin-3-yl]ethynyl]phenyl]pyridine-2-carboxamide] registered a Ki in assay [3] of less than 0.05 nM.

For the molecule `COc1cc(C(N)=O)nc(-c2cc(C#C[C@]3(O)CCN(C)C3=O)c(F)cc2F)c1` [Example 191, 6[2,4-difluoro-5-[2-[(3R)-3-hydroxy-l-methy1-2-oxo-pyrrolidin-3-yl]ethynyl]phenyl]-4-methoxy-pyridine-2-carboxamide], in assay [3], the Ki is less than 0.05 nM.

For `CN1CC[C@@](O)(C#Cc2cccc(-c3nc(C(N)=O)c4c(n3)N(C)CC4)c2)C1=O` [Example 192, 2-[3-[2-[(3R)-3-hydroxy-1-methyl-2-oxo-pyrrolidin-3-yl]ethynyl]phenyl]-7-methyl-5,6-dihydropyrrolo[2,3-d] pyrimidine-4-carboxamide], the inhibition constant (Ki) in assay [3] turned out to be 0.4 nM.

On to `CN1CC[C@@](O)(C#Cc2cccc(-c3nc(C(N)=O)c4cnn(C5CC5)c4n3)c2)C1=O` [Example 193, 1-cyclopropyl-6-[3-[2-[(3R)-3-hydroxy-1-methyl-2-oxo-pyrrolidin-3-yl]ethynyl]phenyl]pyrazolo[3,4-d] pyrimidine-4-carboxamide], for which the inhibitory constant (Ki) in assay [3] is less than 0.1 nM.

With `CN1CC[C@@](O)(C#Cc2cc(F)c(F)c(-c3ccc(N)c(C(N)=O)n3)c2)C1=O` [Example 194, 3-amino-6-[2,3-difluoro-5-[2-[(3R)-3-hydroxy-l-methyl-2-oxo-pyrrolidin-3-yl]ethynyl]phenyl]pyridine-2-carboxamide], the Ki in assay [3] is less than 0.05 nM.

`Cc1cc(-c2cccc(C#C[C@]3(O)CCN(C)C3=O)c2)nc(C(N)=O)c1O` [Example 195, 3-hydroxy-6-[3-[2-[(3R)-3-hydroxy-1-methyl-2-oxo-pyrrolidin-3-yl]ethynyl]phenyl]-4-methyl-pyridine-2-carboxamide] came in with an inhibition constant (Ki) in assay [3] of less than 0.05 nM.

Molecule `CN1CC[C@@](O)(C#Cc2cc(-c3cnc(N)c(C(N)=O)n3)c3ncsc3c2)C1=O` [Example 196, 3-amino-6-[6-[2-[(3R)-3-hydroxy-1-methyl-2-oxo-pyrrolidin-3-yl]ethynyl]-1,3-benzothiazol-4-yl]pyrazine-2-carboxamide] registered a Ki in assay [3] of 1 nM.

In the case of `CN1CC[C@@](O)(C#Cc2cccc(-c3cc(CO)cc(C(N)=O)n3)c2)C1=O` [Example 197, 4-(hydroxymethyl)-6-[3-[2-[(3R)-3-hydroxy-1-methyl-2-oxo-pyrrolidin-3-yl]ethynyl]phenyl]pyridine-2-carboxamide], in assay [3], the affinity corresponds to a Ki of 0.8 nM.

In turn, `COCc1cc(C(N)=O)nc(-c2cccc(C#C[C@]3(O)CCN(C)C3=O)c2)c1` [Example 198, 6-[3-[2-[(3R)-3-hydroxy-1-methyl-2-oxo-pyrrolidin-3-yl]ethynyl]phenyl]-4-(methoxymethyl)pyridine-2-carboxamide] yielded a Ki in assay [3] of 0.5 nM.

Molecule `CCOc1cc(C(N)=O)nc(-c2cccc(C#C[C@]3(O)CCN(C)C3=O)c2)c1` [Example 199] yielded a Ki in assay [3] of 0.4 nM.

The molecule `CN1CC[C@@](O)(C#Cc2cccc(-c3cc(N4CC(F)(F)C4)cc(C(N)=O)n3)c2)C1=O` [Example 200, 4-(3,3-difluoroazetidin-1-yl)-6-[3-[2-[(3R)-3-hydroxy-1-methyl-2-oxo-pyrrolidin-3-yl]ethynyl]phenyl]pyridine-2-carboxamide] displayed a Ki in assay [3] of less than 0.05 nM.
